Results: patent publication US10758549B2, “Compositions of obeticholic acid and methods of use” (Intercept Pharmaceuticals, Inc., priority 2015, dated 2020)
Converted amounts (≈) assume the structure as drawn.

Tests used:
Surface area by BET = format: physicochemical
Method: The impact of jet-milling on API particle size and surface area is detailed in Table 4-1 and Table 4-2, respectively. Surface area was tested per a BET (Brunauer, Emmett, and Teller theory). The BET method for analyzing surface area is based on adsorption of gas on a surface. The amount of gas adsorbed at a given pressure allows a determination of the surface area.

[1] = Equilibrium solubility of OCA in various buffers at 37° C.; format: physicochemical; settings: for solubility: aqueous buffer, 37 °C, thermodynamic from solid
Method: Solubility Studies of OCA in Various Buffers. A study was performed to screen different media of various pH over the pH range 1.2-10.0, incorporating the physiological pH range (1.2-6.8) for immediate release tablets.

patients with PBC = test: Example 9: randomized double-blind placebo-controlled 12-month trial of OCA in PBC; format: in vivo, human
Method: This example describes a randomized, double-blind, placebo-controlled, parallel-group, 12-month trial evaluating OCA in patients with PBC as a monotherapy.
Patients with inflammatory bowel disease or who had undergone gastric bypass procedures were excluded (gastric lap band was acceptable). • Medical conditions that could cause non-hepatic increases in ALP (e.g., Paget's disease)
ALP and TB composite response criteria were measured; a patient was designated as a responder if all three of the following conditions were met: • A value of ALP<1.67×ULN • ALP reduction from baseline ? 15% • A value of TB<ULN
The absolute and percent change from Baseline in ALP, gamma-glutamyl transferase (GGT), alanine aminotransferase (ALT), AST, total bilirubin, conjugated (direct) bilirubin, albumin, prothrombin time and international normalized ratio (INR) at all-time points was measured. The percentage of patients with a decrease in ALP of ? 10%, ? 15%, ? 20%, and ? 40% from Baseline or ? ULN at month 12 was measured. The percentage of patients achieving the following biochemical response criteria was also measured: • ALP ? 3×ULN and AST ? 2×ULN and bilirubin ? ULN ((Corpechot 2008);
Bile acid sequestrant (BAS) concomitant exposure. The primary analysis set used for all efficacy analyses, along with the summarization of disposition along with demographics and baseline characteristics, was the ‘Intent-to-Treat’ (ITT) analysis set. This analysis set included all randomized patients who received at least one dose of blinded study drug. When utilizing this analysis set, patients were analyzed according to the treatment group that they were randomized to regardless of the actual treatment received. It should be noted that all but one randomized patient received at least one dose of blinded study drug.
A Cochran-Mantel-Haenszel (CMH) test which adjusted for both randomization stratification variables as described above, was used for pre-specified analysis. In tandem with the CMH test, a Breslow-Day test was also conducted, to test for the homogeneity of the treatment effect across the different randomization strata.

[2] = 10 mg OCA (N = 73), ITT, listed as Obeticholic acid

## CC[C@H]1[C@@H](O)[C@@H]2[C@H](CC[C@]3(C)[C@@H]([C@H](C)CCC(=O)O)CC[C@@H]23)[C@@]2(C)CC[C@@H](O)C[C@@H]12 [OCA, 3α,7α-dihydroxy-6α-ethyl-5β-cholan-24-oic acid]
Surface area by BET
  surface area increase after jet-milling: approximately 3 fold
[1]; pH 4.1, aqueous buffer, pH 4.1 Acetate
  solubility: 3 µg/mL (≈ 7.13 µM)
[1]; pH 5.1, aqueous buffer, pH 5.1 Acetate
  solubility: 23 µg/mL (≈ 54.7 µM)
[1]; pH 6, aqueous buffer, pH 6.0 Phosphate
  solubility: 50 µg/mL (≈ 119 µM)
[1]; pH 6.8, aqueous buffer, above pH 6.8
  solubility: > 10 µg/mL
[1]; pH 6.8, aqueous buffer, pH 6.8 Phosphate (50 mM sodium phosphate dibasic)
  solubility: 220 µg/mL (≈ 523 µM)
[1]; pH 7, aqueous buffer, pH 7.0 Phosphate
  solubility: 462 µg/mL (≈ 1100 µM)
[1]; pH 8, aqueous buffer, pH 8.0 Phosphate
  solubility: 486 µg/mL (≈ 1160 µM)
[1]; pH 9, aqueous buffer, pH 9.0 Alkaline Borate
  solubility: 462 µg/mL (≈ 1100 µM)
[1]; pH 10, aqueous buffer, pH 10.0 Alkaline Borate
  solubility: 56 µg/mL (≈ 133 µM)
[1]; pH 1.2 Hydrochloric acid
  USP Solubility Rating: Practically
[1]; pH 2.0 Hydrochloric acid
  USP Solubility Rating: Practically
[1]; pH 3.0 Acid Phthalate
  USP Solubility Rating: Practically
[1]; pH 4.1 Acetate
  USP Solubility Rating: Slightly soluble
[1]; pH 5.1 Acetate
  USP Solubility Rating: Sparingly soluble
[1]; pH 6.0 Phosphate
  USP Solubility Rating: Soluble
[1]; pH 6.8 Phosphate
  USP Solubility Rating: Freely soluble
[1]; pH 7.0 Phosphate
  USP Solubility Rating: Freely soluble
[1]; pH 8.0 Phosphate
  USP Solubility Rating: Freely soluble
[1]; pH 9.0 Alkaline Borate
  USP Solubility Rating: Freely soluble
[1]; pH 10.0 Alkaline Borate
  USP Solubility Rating: Soluble
Patients with PBC; 10 mg OCA
  ALP Absolute Change from Baseline to Month 12 (U/L), Mean: −11|7.1 U/L
  ALP Absolute Change from Baseline to Month 12 (U/L), Median: −99.0 U/L
  ALP Percentage Change from Baseline to Month 12 (%), Mean: −36.4%
  ALP Percentage Change from Baseline to Month 12 (%), Median: −38.3%
  Month 12 ALP Concentration (U/L), Mean: 191.2 U/L
  Month 12 ALP Concentration (U/L), Median: 181.7 U/L
  Month 12 ALP Concentration (×ULN), Mean: 1.606 ×ULN
  Month 12 ALP Concentration (×ULN), Median: 1.527 ×ULN
Patients with PBC; 10 mg OCA (N = 73)
  Patients with ALP < 1.67 × ULN at Month 12: (54.8%)
  Patients with Decrease in ALP ≥ 10% at Month 12: (83.6%)
  Patients with Decrease in ALP ≥ 15% at Month 12: (78.1%)
  Patients with Decrease in ALP ≥ 20% at Month 12: (74.0%)
  Patients with Decrease in ALP ≥ 40% at Month 12: (34.3%)
Patients with PBC; 10 mg OCA (N = 73), ITT
  Patients who achieved response (ALP<1.67×ULN, ALP reduction ≥15%, TB≤ULN) at Month 6: 37 (50.7%)
Patients with PBC; [2]
  Patients who achieved response (ALP<1.67×ULN, ALP reduction ≥15%, TB≤ULN) at Month 6: 37 (51) %
  Patients who achieved response (ALP<1.67×ULN, ALP reduction ≥15%, TB≤ULN) at Month 12: 34 (47) %
Patients with PBC; 10 mg OCA (N = 73), listed as obeticholic acid
  Patients with Decrease in ALP ≥ 15% at Month 12: 77%
Patients with PBC; 10 mg obeticholic acid, 12 months (placebo 36%)
  patients who experienced an increase in ALP: 2%
Patients with PBC; 33 patients titrated from 5 mg to 10 mg at Month 6
  up-titrated patients who met the composite endpoint: 39%
Patients with PBC; OCA Titration
  ALP Absolute Change from Baseline to Month 12 (U/L), Median: −85.5 U/L
  ALP Percentage Change from Baseline to Month 12 (%), Mean: −30.5%
  ALP Percentage Change from Baseline to Month 12 (%), Median: −31.5%
  Month 12 ALP Concentration (U/L), Mean: 219.5 U/L
